The text below walks through data of patent US8349899B1 (Arrowhead Center, Inc., priority 2008, dated 2013).

Assay [1] concerns HeLa cervical adenocarcinoma cells. The assay is described as follows: bipolar spindle formation in HeLa cells. The assay is classed as cell-based, human. The following applies: for IC50: read-out: Bipolar spindle formation IC50; for inhibitory activity in the cell-based assay: HeLa bipolar spindle formation. Here is the method:
(§1) Biochemical- and cell-based assays were used to evaluate the inhibitory activities of the STLC analogs. Using a commercially available assay from Cytoskeleton, Inc, analogs were assayed for their ability to block the microtubule-activated ATPase activity of recombinant human EG5 motor domain. In parallel, HeLa cells were treated for four hours with a range of concentrations, and then fixed, stained for microtubules, and mitotic cells were scored for spindle bipolarity.

The subject of the next assay is NCI-H226. The following applies: Non-Small Cell Lung NCI-H226; data previously determined; cited from earlier work.
For another assay, the system named is NCI-H522. As to conditions: Non-Small Cell Lung NCI-H522; data previously determined; cited from earlier work.
A further assay deals with HCT-116. As to conditions: Colon HCT-116; data previously determined; cited from earlier work.
Another assay concerns SF-295. The following applies: Central Nervous System SF-295; data previously determined; cited from earlier work.
For a further assay, the system named is U251. The following applies: Central Nervous System U251; data previously determined; cited from earlier work.
A further assay has as its system OVCAR-5. The following applies: Ovarian OVCAR-5; data previously determined; cited from earlier work.
The next assay has as its system SK-OV-3. The following applies: Ovarian SK-OV-3; data previously determined; cited from earlier work.
The next assay deals with UO-31. As to conditions: Renal UO-31; data previously determined; cited from earlier work.
In assay [2] the target is T1, recombinant human EG5 motor domain (Homo sapiens, UniProt P52732).
T1 construct: recombinant human EG5 motor domain; purchased Cytoskeleton, Inc
T1 sequence (P52732 18-359 limits assumed): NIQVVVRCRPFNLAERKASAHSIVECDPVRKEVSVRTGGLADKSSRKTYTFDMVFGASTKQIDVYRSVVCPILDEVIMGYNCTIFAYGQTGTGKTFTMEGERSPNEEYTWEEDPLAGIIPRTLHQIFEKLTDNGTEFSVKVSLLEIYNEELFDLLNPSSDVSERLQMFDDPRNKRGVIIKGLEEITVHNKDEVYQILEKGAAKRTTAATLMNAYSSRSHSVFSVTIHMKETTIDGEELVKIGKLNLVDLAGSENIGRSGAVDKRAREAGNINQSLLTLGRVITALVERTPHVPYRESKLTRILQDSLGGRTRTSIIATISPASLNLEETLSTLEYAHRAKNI
The assay is described as follows: microtubule-activated Eg5 ATPase assay (Cytoskeleton, Inc). As to conditions: for inhibitory activity in the biochemical assay: Eg5 ATPase assay; for IC50: microtubule-activated ATPase activity of recombinant human EG5 motor domain. The assay is classed as biochemical. Here is the method:
as §1

Where [3] appears, read: Homo sapiens, HeLa cells treated with analog for 4 hours, scored for bipolar vs monopolar spindle formation.

Like-named read-outs stand apart in the source and are kept apart here.

As to `N[C@H](CO)CSC(c1ccccc1)(c1ccccc1)c1ccccc1` [Compound 1.1], the IC50 in [1] (Homo sapiens, HeLa, 4 h) worked out at 580 nM.
In the case of `COc1ccc(C(SC[C@@H](N)CO)(c2ccccc2)c2ccccc2)cc1` [Compound 1.3], in assay [1] (Homo sapiens, HeLa, 4 h), the IC50 was 200 nM.
Turning to `N[C@@H](CSC(c1ccccc1)(c1ccccc1)c1ccccc1)C(=O)O` [Compound 2.5, (R)-2-amino-3-(tritylthio)propanoic acid], in [1] (setting [3]), the IC50 is 660 nM. The GI50 in the assay with NCI-H226 is 100000 nM; in the assay with NCI-H522, 500 nM; in the assay on HCT-116, 500 nM; in the assay with SF-295, 500 nM; in the assay with U251, 1000 nM; in the assay on OVCAR-5, 100000 nM. Besides, the GI50 with SK-OV-3 and in the assay with UO-31 was 100000 nM each time.
In the case of `N[C@@H](CSCC1c2ccccc2-c2ccccc21)C(=O)O` [Compound 2.7, (R)-3-(((9H-fluoren-9-yl)methyl)thio)-2-aminopropanoic acid], the “inhibitory activity in the biochemical assay” value in assay [2] is reported as “no measurable activity”. The IC50 in [2] and in [1] (setting [3]) was over 100000 nM throughout. Besides, the “inhibitory activity in the cell-based assay” value in assay [1] is on record as “no measurable activity”.
Take `N[C@@H](COC(c1ccccc1)(c1ccccc1)c1ccccc1)C(=O)O` [Compound 2.8, (S)-2-amino-3-(trityloxy)propanoic acid]: the IC50 amounted to 760 nM in assay [2] and 850 nM in assay [1] (setting [3]).
Regarding `N[C@@H](CSC(c1ccccc1)c1ccccc1)C(=O)O` [Compound 2.9, (R)-2-amino-3-(benzhydrylthio)propanoic acid], in assay [2], the “inhibitory activity in the biochemical assay” value was “no measurable activity” and the IC50 is over 100000 nM. In assay [1], the “inhibitory activity in the cell-based assay” value is “no measurable activity”. The IC50 in assay [1] (setting [3]) was over 100000 nM.
As to `N[C@@H](CSC1c2ccccc2-c2ccccc21)C(=O)O` [Compound 3.0, (R)-3-((9H-fluoren-9-yl)thio)-2-aminopropanoic acid], in assay [2], the “inhibitory activity in the biochemical assay” value is recorded as “no measurable activity” and the IC50 is over 100000 nM. Besides, the “inhibitory activity in the cell-based assay” value in assay [1] is “no measurable activity”. Besides, in [1] (setting [3]), the IC50 was over 100000 nM.
As for `CC(=O)N[C@@H](CSC(c1ccccc1)(c1ccccc1)c1ccccc1)C(=O)O` [Compound 3.1, (R)-2-acetamido-3-(tritylthio)propanoic acid], in assay [2], the “inhibitory activity in the biochemical assay” value is “no measurable activity” and the IC50 is over 100000 nM. The “inhibitory activity in the cell-based assay” value in assay [1] is given as “no measurable activity”. Moreover, the half-inhibitory concentration (IC50) in [1] (setting [3]) is over 100000 nM.
`COC(=O)[C@@H](N)CSC(c1ccccc1)(c1ccccc1)c1ccccc1` [Compound 3.2, (R)-methyl 2-amino-3-(tritylthio)propanoate]: the IC50 is 510 nM in assay [2] and 920 nM in [1] (setting [3]).
On to `NC(=O)[C@@H](N)CSC(c1ccccc1)(c1ccccc1)c1ccccc1` [Compound 3.3, (R)-2-amino-3-(tritylthio)propanamide], for which the IC50 amounted to 540 nM in assay [2] and 670 nM in assay [1] (setting [3]).
Regarding `N[C@@H](CSC(c1ccccc1)(c1ccccc1)c1cccnc1)C(=O)O` [Compound 3.4, (R)-2-amino-3-((diphenyl(pyridin-3-yl)methyl)thio)propanoic acid], in [2], the “inhibitory activity in the biochemical assay” value is reported as “no measurable activity”. In addition, the IC50 in assay [2] and in assay [1] (setting [3]) was over 100000 nM throughout. Also, the “inhibitory activity in the cell-based assay” value in [1] is reported as “no measurable activity”.
Turning to `C#CCNC(=O)[C@@H](N)CSC(c1ccccc1)(c1ccccc1)c1ccccc1` [Compound 3.5, (R)-2-amino-N-(prop-2-yn-1-yl)-3-(tritylthio)propanamide], the results for the concentration for half-maximal inhibition (IC50) in assay [2] and in assay [1] (setting [3]) were 490 nM and 760 nM, respectively.
Consider `CC(=O)N[C@@H](CSC(c1ccccc1)(c1ccccc1)c1ccccc1)C(N)=O` [Compound 3.6, (R)-2-acetamido-3-(tritylthio)propanamide], for which, in [2], the “inhibitory activity in the biochemical assay” value is given as “no measurable activity” and the IC50 was over 100000 nM. Moreover, the “inhibitory activity in the cell-based assay” value in assay [1] was “no measurable activity”. In addition, the IC50 in assay [1] (setting [3]) is over 100000 nM.
As to `CCCCNC(=O)[C@@H](N)CSC(c1ccccc1)(c1ccccc1)c1ccccc1` [Compound 3.8, (R)-2-amino-N-butyl-3-(tritylthio)propanamide], the half-inhibitory concentration (IC50) in [2] is 560 nM; in assay [1] (setting [3]), 680 nM.
Regarding `C#CCNC(=O)[C@@H](N)CSC(c1ccccc1)(c1ccccc1)c1ccc(OC)cc1` [Compound 4.0], the IC50 in assay [2] came to 310 nM; in assay [1] (setting [3]), 440 nM.
Regarding `COc1ccc(C(SC[C@H](N)C(=O)NCCOCCN)(c2ccccc2)c2ccccc2)cc1` [Compound 4.2, (R)-2-amino-N-(2-(2-aminoethoxy)ethyl)-3-(((4-methoxyphenyl)diphenylmethyl)thio)propanamide], the values for the IC50 in assay [2] and in [1] (setting [3]) were 280 nM and 540 nM, respectively.
Consider “(R)-2-amino-3-(((4-methoxyphenyl)diphenylmethyl)thio)propanamide [Compound 3.9]”, for which, in assay [2], the “inhibitory activity in the biochemical assay” value is “no measurable activity”. For the same molecule, in [1], the “inhibitory activity in the cell-based assay” value is “no measurable activity”. Also, the IC50 in [1] (HeLa cells treated with analog for 4 hours, scored for bipolar vs monopolar spindle formation) is over 100000 nM.

A word on the IC50: it is the midpoint of a concentration-inhibition curve. What is called GI50 is the concentration that inhibits growth by half.
